The subject of one series is S. aureus ATCC 29213. Briefly: MIC, twofold serial microdilution. It is filed as cell-based. The following applies: Staphylococcus aureus, ATCC29213; standard strain, 18 h, 35 °C. The protocol:
(§1) The antimicrobial activity of the compounds was tested on Gram-positive bacteria (Staphylococcus aureus NCTC 4163, Staphylococcus aureus ATCC 25923, Staphylococcus aureus ATCC 6538, Staphylococcus aureus ATCC 29213, Staphylococcus epidermidis ATCC 12228, Staphylococcus epidermidis ATCC 35984, Enterococcus faecalis ATCC 29212, Bacillus subtilis ATCC 6633, Bacillus cereus ATCC 11778, Micrococcus luteus ATCC 9341, Micrococcus luteus ATCC 10240); Gram-negative rods (Escherichia coli ATCC 10538, Escherichia coli ATCC 25922, Escherichia coli NCTC 8196, Proteus vulgaris NCTC 4635, Pseudomonas aeruginosa ATCC 15442, Pseudomonas aeruginosa NCTC 6749, Pseudomonas aeruginosa ATCC 27863, Bordetella bronchiseptica ATCC 4617) and yeasts (Candida albicans ATCC 10231, Candida albicans ATCC 90028, Candida parapsilosis ATCC 22019). Other microorganisms used were obtained from the collection of the Department of Pharmaceutical Microbiology, Medical University of Warsaw, Poland.
(§2) Antibacterial activity was examined by the disc-diffusion method under standard conditions using Mueller-Hinton II agar medium (Becton Dickinson) according to CLSI (previously NCCLS) guidelines. Antifungal activities were assessed using Mueller-Hinton agar + 2% glucose and 0.5 µg/mL Methylene Blue Dye Medium. Sterile filter paper discs (9 mm diameter, Whatman No 3 chromatography paper) were dripped with tested compound solutions (in DMSO) to load 400 μg of a given compound per disc. Dry discs were placed on the surface of appropriate agar medium. The results (diameter of the growth inhibition zone) were read after 18 h of incubation at 35 °C. Minimal Inhibitory Concentration (MIC) was tested by the twofold serial microdilution method (in 96-well microtiter plates) using Mueller-Hinton Broth medium (Beckton Dickinson) for bacteria or RPMI-1640 medium for Candida species according to CLSI guidelines. The stock solution of tested agent was prepared in DMSO and diluted in sterile water. Concentrations of tested agents ranged from 0.125 to 512 µg/mL. The final inoculum of all studied microorganisms was 10^5 CFU/ mL^−1 (colony forming units per mL). Minimal inhibitory concentrations (the lowest concentration of a tested agent that prevents visible growth of a microorganism) were read after 18 h (bacteria) or 24 h (yeasts) of incubation at 35 °C.

Another series concerns B. cereus ATCC 11778. Put plainly: MIC, twofold serial microdilution. It counts as cell-based. The following applies: Bacillus cereus, ATCC11778; standard strain, 18 h, 35 °C. As for the experimental part: as §1, §2
(In broth dilution the organism is exposed to a series of concentrations in liquid medium.)

A further series relates to E. faecalis ATCC 29212. Briefly: MIC, twofold serial microdilution. It is filed as cell-based. Particulars: Enterococcus faecalis, ATCC29212; standard strain, 18 h, 35 °C. As for the experimental part:
as §1, §2

In the next series the test system is S. aureus ATCC 25923. Put plainly: MIC, twofold serial microdilution. The following applies: Staphylococcus aureus, ATCC25923; standard strain, 18 h, 35 °C. It counts as cell-based. As for the experimental part: as §1, §2
In another series the test system is M. luteus ATCC 10240. Briefly: MIC, twofold serial microdilution. It is filed as cell-based. The following applies: Micrococcus luteus, ATCC10240; standard strain, 18 h, 35 °C. The protocol: as §1, §2
For series [1], the system named is S. epidermidis ATCC 35984. Put plainly: MIC, twofold serial microdilution. It is filed as cell-based. Particulars: Staphylococcus epidermidis, ATCC35984; standard strain, 18 h, 35 °C. As for the experimental part: as §1, §2
The subject of another series is S. aureus NCTC 4163. Briefly: MIC, twofold serial microdilution. It counts as cell-based. The following applies: Staphylococcus aureus, NCTC4163; standard strain, 18 h, 35 °C. As for the experimental part: as §1, §2
For another series, the system named is S. aureus ATCC 6538. Briefly: MIC, twofold serial microdilution. It counts as cell-based. Particulars: Staphylococcus aureus, ATCC6538; standard strain, 18 h, 35 °C. As for the experimental part:
as §1, §2

The next series has as its system B. subtilis ATCC 6633. Put plainly: MIC, twofold serial microdilution. It counts as cell-based. The following applies: Bacillus subtilis, ATCC6633; standard strain, 18 h, 35 °C. As for the experimental part: as §1, §2
Another series relates to M. luteus ATCC 9341. Put plainly: MIC, twofold serial microdilution. It is filed as cell-based. Particulars: Micrococcus luteus, ATCC9341; standard strain, 18 h, 35 °C. The protocol: as §1, §2
Series [2] has as its system S. epidermidis ATCC 12228. Put plainly: MIC, twofold serial microdilution. It is filed as cell-based. Particulars: Staphylococcus epidermidis, ATCC12228; standard strain, 18 h, 35 °C. The protocol:
as §1, §2

In series [3] the test system is S. epidermidis MRSE 409/11. Put plainly: MIC, hospital methicillin-resistant strain. It counts as cell-based. The following applies: Staphylococcus epidermidis. As for the experimental part:
as §1, §2

Series [4] deals with S. epidermidis MRSE 405/11. Briefly: MIC, hospital methicillin-resistant strain. It is filed as cell-based. Particulars: Staphylococcus epidermidis. As for the experimental part: as §1, §2
Series [5] deals with S. epidermidis MRSE 407/11. Put plainly: MIC, hospital methicillin-resistant strain. It counts as cell-based. The following applies: Staphylococcus epidermidis. As for the experimental part:
as §1, §2

In series [6] the test system is S. epidermidis MRSE 411/11. Put plainly: MIC, hospital methicillin-resistant strain. It is filed as cell-based. Particulars: Staphylococcus epidermidis. The protocol:
as §1, §2

The subject of series [7] is S. epidermidis MRSE 413/11. Briefly: MIC, hospital methicillin-resistant strain. It is filed as cell-based. Particulars: Staphylococcus epidermidis. As for the experimental part: as §1, §2
Series [8] concerns S. epidermidis MRSE 422/11. Put plainly: MIC, hospital methicillin-resistant strain. Particulars: Staphylococcus epidermidis. It is filed as cell-based. As for the experimental part:
as §1, §2

Series [9] has as its system S. epidermidis MRSE 406/11. Briefly: MIC, hospital methicillin-resistant strain. It counts as cell-based. Particulars: Staphylococcus epidermidis. The protocol:
as §1, §2

Series [10] has as its system S. epidermidis MRSE 412/11. Put plainly: MIC, hospital methicillin-resistant strain. It counts as cell-based. The following applies: Staphylococcus epidermidis. The protocol: as §1, §2
Series [11] has as its system S. epidermidis MRSE 403/11. Put plainly: MIC, hospital methicillin-resistant strain. It is filed as cell-based. Particulars: Staphylococcus epidermidis. The protocol: as §1, §2
Series [12] deals with S. epidermidis MRSE 404/11. Put plainly: MIC, hospital methicillin-resistant strain. It counts as cell-based. The following applies: Staphylococcus epidermidis. As for the experimental part: as §1, §2
For a further series, the system named is HIV-1 IIIB. Put plainly: Anti-HIV-1 activity: protection of MT-4 cells from virus-induced cytopathogenicity (MTT). It counts as cell-based, Human Immunodeficiency Virus type-1. Particulars: Human immunodeficiency virus 1, IIIB, MT4, 96 h; 50% protection of MT-4 cells from HIV-1 induced cytopathogenicity, MTT, 4-day incubation; read-out: HIV-1IIIB EC50. From the text: (§3) Cell line supporting the multiplication of Human Immunodeficiency Virus type-1 (HIV-1) was the CD4+ human T-cells, derived from human hematological tumors, containing an integrated HTLV-1 genome (MT-4). Cells were purchased from American Type Culture Collection (ATCC). Human Immunodeficiency Virus type-1 (HIV-1) IIIB laboratory strain was obtained from the supernatant of the persistently infected H9/IIIB cells (NIH 1983).
The activity of compounds against HIV-1 was based on inhibition of virus-induced cytopathogenicity in MT-4 cell acutely infected with a multiplicity of infection (m.o.i.) of 0.01. Briefly, 50 μL of RPMI containing 1 × 10^4 MT-4 cells were added to each well of flat-bottom microtiter trays, containing 50 μL of RPMI without or with serial dilutions of test compounds. Then, 20 μL of a HIV-1 suspension containing 100 CCID50 were added. After a 4-day incubation at 37 °C, cell viability was determined by the MTT method.
On the technique in general: Damage to the host cells serves as the signal in cytopathic effect assays.

Series [13] is described as follows: Cytotoxicity against mock-infected MT-4 cells (MTT). Particulars: human, concentration reducing viability of mock-infected MT-4 cells by 50%. It counts as cell-based, human. As for the experimental part:
as §3
Exponentially growing MT-4 cells were seeded at an initial density of 1 × 10^5 cells/mL in 96-well plates in RPMI-1640 medium, supplemented with 10% fetal bovine serum (FBS), 100 units/mL penicillin G and 100 μg/mL streptomycin. Cell cultures were then incubated at 37 °C in a humidified, 5% CO2 atmosphere, in the absence or presence of serial dilutions of tested compounds. Cell viability was determined after 96 h at 37 °C by the 3-(4,5-dimethylthiazol-2-yl)-2,5-diphenyl-tetrazolium bromide (MTT) method.

For another series, the system named is staphylococci. Briefly: MIC against staphylococci. It counts as cell-based. The following applies: moderate activity. As for the experimental part:
as §1, §2

≈ marks a conversion by molar mass, not a printed value.

In general, MIC refers to the least concentration at which growth counts as inhibited. Higher therefore signals a need for much substance. By EC50 is commonly meant the concentration needed to bring the measured effect to its halfway point. Usually CC50 stands for the concentration giving 50% cytotoxicity. A lower CC50 goes with greater toxicity to the cells. As usually defined, the melting point is the temperature, or range, at which the solid turns liquid.

As for `O=C(O)c1cn(C2CC2)c2cc(N3CCNCC3)c(F)cc2c1=O` [Ciprofloxacin, reference compound], the MIC against S. aureus ATCC 29213 is 0.5 µg/mL (≈ 1.51 µM); in the series on B. cereus ATCC 11778, 0.25 µg/mL (≈ 0.754 µM); against E. faecalis ATCC 29212, 1 µg/mL (≈ 3.02 µM); against S. aureus ATCC 25923, 0.5 µg/mL (≈ 1.51 µM); against M. luteus ATCC 10240, 2 µg/mL (≈ 6.04 µM); in [1], 0.25 µg/mL (≈ 0.754 µM). Also, the MIC against S. aureus NCTC 4163 was 0.25 µg/mL (≈ 0.754 µM); in the series on S. aureus ATCC 6538, 0.25 µg/mL (≈ 0.754 µM); in the series with B. subtilis ATCC 6633, less than 0.12 µg/mL; against M. luteus ATCC 9341, 1 µg/mL (≈ 3.02 µM); in series [2], 0.25 µg/mL (≈ 0.754 µM); in series [3] it was 2 µg/mL (≈ 6.04 µM). Further, the MIC was found to be 4 µg/mL (≈ 12.1 µM) in series [4]; 64 µg/mL (≈ 193 µM) in series [5]; 4 µg/mL (≈ 12.1 µM) in series [6]; 32 µg/mL (≈ 96.6 µM) in series [7]; 4 µg/mL (≈ 12.1 µM) in series [8]; 0.5 µg/mL (≈ 1.51 µM) in [9]. Further, the values for the MIC in series [10], in series [11] and in [12] were 64 µg/mL (≈ 193 µM), 16 µg/mL (≈ 48.3 µM) and 64 µg/mL (≈ 193 µM), respectively.

Compound `O=[N+]([O-])c1cc(NC(=S)Nc2ccccc2)ccc1Cl` [Compound 23, 1-(4-chloro-3-nitrophenyl)-3-phenylthiourea] registered a melting point of 163 to 165 °C. Further, the EC50 in the series on HIV-1 IIIB was more than 23 µM. In the series on S. aureus ATCC 29213, this compound registered a minimum inhibitory concentration (MIC) of 16 µg/mL (≈ 52 µM). In the series with B. cereus ATCC 11778, this compound registered an MIC of 8 µg/mL (≈ 26 µM). In the series with E. faecalis ATCC 29212, this compound returned an MIC of 16 µg/mL (≈ 52 µM). Inhibition of growth in the series with S. aureus ATCC 25923 (MIC) required 16 µg/mL (≈ 52 µM). The MIC in the series with M. luteus ATCC 10240 is 8 µg/mL (≈ 26 µM). The compound also registered an MIC in series [1] of 16 µg/mL (≈ 52 µM). In the series with S. aureus NCTC 4163, the MIC stood at 16 µg/mL (≈ 52 µM). This compound displayed an MIC with S. aureus ATCC 6538 of 16 µg/mL (≈ 52 µM). The compound also returned an MIC against B. subtilis ATCC 6633 of 8 µg/mL (≈ 26 µM). The compound further yielded an MIC against M. luteus ATCC 9341 of 4 µg/mL (≈ 13 µM). The compound also came in with an MIC in series [2] of 16 µg/mL (≈ 52 µM). The same compound displayed an MIC in series [3] of 16 µg/mL (≈ 52 µM). Moreover, the MIC in series [4] turned out to be 16 µg/mL (≈ 52 µM). In addition, the MIC in series [5] was determined as 16 µg/mL (≈ 52 µM). In series [6], this compound showed an MIC of 16 µg/mL (≈ 52 µM). For the same compound, 16 µg/mL (≈ 52 µM) was the least that counted as inhibitory in [7] (MIC). In addition, in [8], the MIC is 16 µg/mL (≈ 52 µM). For the same compound, the MIC in [9] worked out at 16 µg/mL (≈ 52 µM). The compound further gave an MIC in series [10] of 32 µg/mL (≈ 104 µM). This compound also came in with an MIC in series [11] of 16 µg/mL (≈ 52 µM). In addition, the lowest concentration to inhibit growth in [12] (MIC) was 16 µg/mL (≈ 52 µM). The compound also yielded a CC50 at 96 h in [13] of 23 µM. In addition, the “MIC range towards staphylococci” value in the series on staphylococci fell in the range of 8 to 16 µg/mL.

(Values after paper PMC6222614, “Disubstituted 4-Chloro-3-nitrophenylthiourea Derivatives: Antimicrobial and Cytotoxic Studies” (Molecules : A Journal of Synthetic Chemistry and Natural …, 2018).)
